Assays:
[1] = biological target: T1, 1,25-(OH)2 D3 receptors (rat intestine) (Rattus norvegicus, UniProt P13053); experiment: Competitive Binding to 1,25-(OH)2 D3 Intestine Receptors, rat; conditions: a/b×100 from amounts displacing 50% of 1,25-(OH)2[3H]D3
T1 construct: receptor prepared from intestine of chick, rat and calf; from tissue; host or cells: rat proximal small-intestine mucosa, cytosol, 35% ammonium sulphate precipitate
T1 sequence (P13053 1-423): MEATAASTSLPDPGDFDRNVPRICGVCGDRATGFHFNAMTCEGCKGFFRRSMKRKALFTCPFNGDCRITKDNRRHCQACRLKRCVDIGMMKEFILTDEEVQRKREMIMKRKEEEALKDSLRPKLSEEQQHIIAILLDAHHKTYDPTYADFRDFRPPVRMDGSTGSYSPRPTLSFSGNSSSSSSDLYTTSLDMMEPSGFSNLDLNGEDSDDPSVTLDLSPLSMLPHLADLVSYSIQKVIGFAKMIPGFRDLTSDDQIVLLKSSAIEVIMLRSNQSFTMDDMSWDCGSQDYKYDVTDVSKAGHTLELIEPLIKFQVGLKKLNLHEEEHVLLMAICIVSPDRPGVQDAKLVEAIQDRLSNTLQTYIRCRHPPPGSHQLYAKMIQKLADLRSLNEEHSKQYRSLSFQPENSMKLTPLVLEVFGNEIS
Method: The ability of vitamin D3 metabolites to compete for 1,25-(OH)[^3 H]D3 receptor binding sites was evaluated with receptor prepared from intestine of chick, rat and calf. The receptor was prepared by removing 10-12% of the small intestine immediately adjacent to the pyloric spincter which was washed immediately with cold buffer containing 500 mM KCl, 50 mM Tris, 1.5 mM EDTA, and 5 mM dithiothreitol, pH 7.4 (KTED buffer). Mucosa was collected and washed three times with 10 volumes of cold KTED buffer. The washed mucosa was homogenized in KTED buffer (20% w/v) using a Polytron Pt20 tissue disruptor. Cytosol was prepared by centrifugation of the homogenized mucosa at 300,000×g for 1 hour. Receptor was precipitated from the cytosol by the addition of ammonium sulphate to achieve 35% saturation. The ammonium sulphate treated cytosol was centrifuged at 20,000×g for 10 minutes. The supernatant was discarded and the pellet lyophilized and stored at […] Prior to binding assay the pellet was resuspended in cold binding assay buffer containing 150 mM KCl, 50 mM NaPO4, 1.5 mM EDTA and 5 mM dithiothreitol.

[2] = tested on: bone calcium mobilization; experiment: Bone Calcium Mobilization in Rat (plasma Ca increase); assay type: in vivo; conditions: intrajugular, 18 h
Method: Controls received carrier alone. Bone Ca resorption (BCR) was estimated by measuring the blood Ca increase in the treated rats. Blood was collected in heparinized tubes and centrifuged. The resulting plasma was measured for calcium concentration by atomic absorption spectroscopy. Since rats were fed a diet essentially devoid of Ca, plasma Ca increases reflected mobilization of Ca from bone, not intestinal Ca absorption.

[3] = tested on: HL-60 promyelocytic leukemia cells; experiment: Induction of differentiation of HL-60 cells (NBT reduction); assay type: cell-based, human; conditions: 8 days; for EC50: Homo sapiens, HL-60, 192 h, from dose response curves, read-out: ED50 (concentration which induced differentiation of 50% of the cells)
Method: Inhibition of Cell Proliferation and Induction of Cell Differentiation
Cultures of HL-60 promyelocytic leukemia cells were established in the absence (control) and presence of various concentrations of test compounds. After an 8-day incubation period, the cultures were evaluated for proliferation of tumor cells, cell viability, and cellular differentiation. Proliferation was assessed by directly enumerating the increased number of tumor cells resulting from cell division during incubation. Viability was assessed by dye exclusion technique to learn whether any of the compounds were lethal to the cultured HL-60 cells. Cellular differentiation was evaluated by determining the number of cells which had acquired the enzymes necessary to support a respiratory burst, a characteristic of mature macrophages and granulocytes.
Tissue culture medium used in these experiments was RPMI-1640 supplemented to 10% v/v with heat-inactivated fetal bovine serum and to an additional 1.6 mM with L-glutamine.
Test compounds were dissolved in sufficient ethanol to yield stock solutions of 1×10^-2 or 1×10^-3 molar. Reduced lighting was used when working with compounds and stock solutions were stored in the dark at -20° C. in an argon atmosphere. Compounds were diluted in tissue culture medium and added to flasks containing HL-60 cells to achieve the final concentration described in each test.
The HL-60 tumor cell line was originally derived from a patient with promyelocytic leukemia and was obtained from the American Type Culture Collection. The cells were maintained in liquid culture by serial passage twice weekly in tissue culture medium. […] In any test, three replicate flasks were incubated without compound (control) or in the presence of varying concentrations of test compound. Ethanol, used as the vehicle, was kept constant in all dilutions in each test and had no effect on cell proliferation, viability or cell differentiation at the concentrations used (≤0.1%). After 8 days of incubation at 37° in a humidified atmosphere of 5% CO2 in air, cultures were evaluated for tumor cell proliferation, viability and differentiation.
Quantitation of differentiated cells was done by the biochemical method of nitroblue tetrazolum (NBT) reduction. One million HL-60 cells were pooled from replicate cultures, centrifuged at 220×g for 10 minutes, and resuspended in 1 ml of Ca^++ -Mg^++ -deficient phosphate buffered saline prepared by supplementing Ca^++ -Mg^++ -free phosphate buffered saline (PBS) to 20% v/v with heat-inactivated fetal bovine serum). Nitroblue tetrazolium was dissolved at 0.5 mg per ml in Ca^++ -Mg^++ -free PBS with gentle heating and frequent mixing. A stock solution of 1 mg tetradecanoyl phorbol acetate (TPA) per ml in ethanol, stored at -20°, was diluted 100-fold with Ca^++ -Mg^++ -free PBS to prepare a working solution. The test was done by adding 1 ml of NBT solution and 0.02 ml of the working TPA solution to the HL-60 cells. After mixing, the tubes were incubated in a 37° water bath for 25 minutes then transferred to ice. Undifferentiated and differentiated cells present in any sample were determined microscopically by surveying a minimum of 300 cells per sample. Cells without pigmented granules (clear cells) were judged to be undifferentiated while those containing greater than 3 blue-black formazan granules were scored as differentiated. Generally, differentiated cells were intensely pigmented clearly indicating the enzymatic conversion of NBT to formazan. Results are expressed as the percentage of differentiated cells present in any sample as calculated according to the formula: [formula] The results are also expressed as the concentration of compound which induced differentiation of 50% of the cells (ED50).

| Structure (SMILES) | Competitive Binding to 1,25-(OH)2 D3 Receptors - % of 1,25-(OH)2 D3 Effect, rat intestine [1] [%] | % of 1,25-(OH)2 D3 Effect in Rat, bone calcium mobilization ([2]; 12.5 ng/rat) [%] | % Differentiated cells ([3]; 0.01 × 10^-8 M) [%] | % Differentiated cells ([3]; 0.1 × 10^-8 M) [%] | % Differentiated cells ([3]; 1 × 10^-8 M) [%] | % Differentiated cells ([3]; 10 × 10^-8 M) [%] | EC50 [3] [nM] | % of 1,25-(OH)2 D3 Effect in Rat, bone calcium mobilization ([2]; 15.5 ng/rat) [%] |
| --- | --- | --- | --- | --- | --- | --- | --- | --- |
| C=C1/C(=C\C=C2/CCC[C@]3(C)[C@@H]([C@H](C)CC#CC(O)(C(F)(F)F)C(F)(F)F)CC[C@@H]23)C[C@@H](O)C[C@@H]1O [Compound B] | 142 | 0 | 13 | 29 | 95 | 98 | 2 |  |
| C=C1/C(=C\C=C2/CCC[C@]3(C)[C@@H]([C@H](C)CC#CC(C)(C)O)CC[C@@H]23)C[C@@H](O)C[C@@H]1O [Compound A, 1α,25-dihydroxy-23-yne-cholecalciferol] | 39 |  |  | 15 | 54 | 98 | 9 | 15 |
